Source: ChEMBL document CHEMBL3507680, “University of Dundee, Gates Library screen for HepG2 cell viability”

Test: Human HepG2 cell viability assay in 384 well format
Assay type: toxicity, cell-based
Parameters: dose 125 nL, time 70.5 hour; cytotoxicity at 70.5 h: concentration not given beside the values
Details: HepG2 cells, read-out: Inhibition

Row | SMILES | cytotoxicity at 70.5 h [%]
1 | CCn1c(CN2CCCC(Cn3cncn3)C2)nc2c(F)cccc21 (stereo unspecified) | 1.73
2 | CCc1noc(CN(C)CCC(=O)Nc2ccc(C#N)c(Cl)c2)n1 | 0.733
3 | CCn1c(CN2CCOC(Cn3cncn3)C2)nc2c(F)cccc21 (stereo unspecified) | 15.4
4 | COc1ccc(C(=O)NS(C)(=O)=O)cc1-c1ccccc1 | -1.59
5 | Cc1nc(-c2cccc(C(=O)N(C)C)c2)cs1 | 1.56
6 | COc1ccccc1C(C)CNC(=O)c1[nH]ncc1Br (stereo unspecified) | 3.61
7 | Cc1ccc2c(c1)C(NC1CCN(C)CC1)CCCO2 (stereo unspecified) | 15.4
8 | Cc1ccc(CNCCCNS(C)(=O)=O)c(Br)c1 | 4
9 | O=S(=O)(Nc1ccon1)c1cc(Cl)cc2c1OCC2 | 1.46
10 | CCC(C)(NCc1nc(C)c(C)o1)c1nccs1 (stereo unspecified) | 15.6
11 | COc1ccc(CN2CCC3(CC(C(=O)NCC(C)C)=NO3)C2)cc1 (stereo unspecified) | -6.44
12 | CC(C)CNC(=O)C1=NOC2(CCN(Cc3ccc(C(C)C)cc3)C2)C1 (stereo unspecified) | -1.12
13 | CN(C)C(=O)N1Cc2nnn(CC3CC3)c2C(COCC2CC2)C1 (stereo unspecified) | -6.92
14 | O=S(=O)(C1CC1)N1CCc2c(CN3CCOCC3)cncc2C1 | -2.38
15 | CS(=O)(=O)N1CCOCC12CCN(Cc1ccoc1)CC2 | -5.63
16 | COCC(=O)N1CCC2(C1)c1ccccc1S(=O)(=O)N2C (stereo unspecified) | -9.08
17 | CC(=O)N1CCC2(C1)c1ccccc1S(=O)(=O)N2C (stereo unspecified) | -7.77
18 | COCC(=O)N1CCC2(C1)c1ccccc1S(=O)(=O)N2CC1CC1 (stereo unspecified) | -8.07
19 | CCCS(=O)(=O)N1Cc2nccn2CC(Cn2cncn2)C1 (stereo unspecified) | 20.3
20 | CC(C)CS(=O)(=O)N1C[C@H]2C[C@H](C(=O)N3CCCC3)[C@@H](C1)O2 | 0.165
21 | CC(C)CS(=O)(=O)N1C[C@H]2C[C@H](C(=O)N(C)C)[C@@H](C1)O2 | -1.1
22 | Cc1oncc1C(=O)N1CC[C@H]2[C@@H]1CCC(=O)N2CC1CC1 | 2.95
23 | O=C(c1ccccn1)N1CCc2ncnc(-c3ccncc3)c2CC1 | -0.573
24 | CCS(=O)(=O)N1Cc2nccn2CC(Cn2cncn2)C1 (stereo unspecified) | 0.16
25 | O=S(=O)(C1CC1)N1CCC2(CCCN(Cc3ccccn3)C2)CC1 | -5.17
26 | O=S(=O)(C1CC1)N1Cc2nccn2CC(Cn2cncn2)C1 (stereo unspecified) | -4.4

Row | SMILES | cytotoxicity at 70.5 h [%]
27 | CC(C)N(C)[C@@H]1CCN(S(C)(=O)=O)[C@H]1Cc1ccccc1 | -3.3
28 | c1nc2c(c(N3CCOCC3)n1)CCNCC2 | -4.52
29 | c1cncc(COCC2C[C@@H]3OCCN(Cc4cccnc4)[C@H]3C2)c1 (stereo partly specified) | -2.24
30 | Cc1oncc1C(=O)N1CC[C@H]2[C@@H]1CCC(=O)N2CC1CCOCC1 | -1.77
31 | COCCN1CCc2ncnc(N(C)C)c2CC1 | -10.9
32 | COCCN1CCc2ncnc(NC3CC3)c2CC1 | -2.68
33 | COCC1CN(c2ncccn2)Cc2cnn(CC3CC3)c21 (stereo unspecified) | -6.23
34 | CC(C)N(C)Cc1cc(=O)n2c(n1)CN(C(=O)c1cnccn1)CCC2 | 4.66
35 | O=C(O)c1c(-c2ccncc2)ncc2c1CCN(Cc1ccco1)C2 | 3.95
36 | CCO[C@@H]1CC[C@H]2[C@H]1OCCN2C(=O)c1nn(C)c2ccccc12 | 2.67
37 | O=C(C1CC=CC1)N1CCCn2nnc(CNc3ncccn3)c2C1 | 0.685
38 | CC(C)N(C)Cc1cc(=O)n2c(n1)CN(C(=O)c1ccnnc1)CCC2 | -2.81
39 | CC(C)CN1CCO[C@H]2CCN(c3cnccn3)CC[C@@H]21 | -8.81
40 | Cc1csc([C@@H]2C[C@H]3CN(c4ncc(F)cn4)C[C@H]3O2)n1 | -2.24
41 | CS(=O)(=O)N1CCOCC12CCN(Cc1ccc(F)cc1)CC2 | -6.42
42 | CNC(=O)COC1COC2(CCN(Cc3ccncc3F)CC2)C1 (stereo unspecified) | -18
43 | Fc1cccc(CN2CCC3(CCN3c3ncccn3)C2)c1 (stereo unspecified) | -8.53
44 | Cc1ccc(N2C[C@@H]3OCCN(CC4CC4)[C@@H]3C2)nn1 | -7.81
45 | CNC(=O)COC1COC2(CCN(Cc3cccnc3OC)CC2)C1 (stereo unspecified) | -8.67
46 | CS(=O)(=O)NC[C@H]1OC[C@@H]2CCN(CCc3ccccc3)C[C@@H]21 | 17.3
47 | O=C(c1ccno1)N1CCc2ncnc(-c3ccncc3)c2CC1 | 1.37
48 | CS(=O)(=O)NC[C@@H]1OC[C@H]2CN(Cc3ccccc3)CC[C@H]21 | -1.13
49 | Cc1cccc(CN2CCc3onc(Cn4cccc4)c3C2)n1 | -2.56
50 | O=S(=O)(C1CC1)N1CCO[C@@H]2CC(COCc3cccnc3)C[C@H]21 (stereo partly specified) | -2.81
51 | Cn1ccnc1C(=O)N1CCC2(CCN2c2ncccn2)C1 (stereo unspecified) | 0.472
52 | N#Cc1cccc(CN2CC[C@@H]3CN(c4ncccn4)CCO[C@@H]3C2)c1 | 21.7

Row | SMILES | cytotoxicity at 70.5 h [%]
53 | CC(C)n1nc(CN2CCOCC2)c2c1CN(C(=O)c1ccno1)C2 | -4.42
54 | CN(C)[C@@H]1CN(C(=O)Cc2cccc(F)c2)[C@@H]2CCCO[C@H]12 | -1.9
55 | CN(C)[C@@H]1CN(C(=O)CCc2ccccc2)[C@@H]2CCCO[C@H]12 | -3.71
56 | CC(C)n1nc(CN2CCCCC2)c2c1CN(C(=O)c1ccno1)C2 | -8.4
57 | c1cc(CN2C[C@H](OCC3CCOCC3)[C@H]3COC[C@H]32)cs1 | -7.76
58 | O=C1CC[C@H]2[C@H](CCN2c2ncc(F)cn2)N1c1ccccc1 | -5.86
59 | Cc1noc([C@H]2C[C@@H]3CCN(c4nnc(C)s4)C[C@H]3O2)n1 | -8.11
60 | CCCC(=O)NC1CCc2c(ccc(=O)n2Cc2csc(C)n2)C1 (stereo unspecified) | -12.5
61 | CCc1ncnc2c1CCN(CCOC)CC2 | -9.59
62 | c1cnc(N2CCO[C@H]3[C@H](OCC4CC4)CC[C@@H]32)nc1 | -7.29
63 | N#Cc1cccc(CN2C[C@@H]3CN(c4ncccn4)C[C@@H]3C2)c1 | -6.36
64 | COCCN1CCc2ncnc(-c3ccccc3)c2CC1 | -5.42
65 | CC(C)NC(=O)[C@@]12CCO[C@@H]1CCN(Cc1ccco1)C2 | 1.53
66 | CCOC1COC2(CCN(Cc3cccc(C)n3)CC2)C1 (stereo unspecified) | 0.953
67 | CC(C)CN1C[C@H]2C[C@H](C(=O)NC3CCC3)[C@@H](C1)O2 | -1.14
68 | Cc1noc(C)c1CN1C[C@@H]2CC(F)(F)C[C@@H]2C1 | -2.12
69 | Cc1ccc(N2Cc3cnn(C)c3C(COCC3CC3)C2)nn1 (stereo unspecified) | -4.86
70 | CCOCC1CN(c2ccc(C)nn2)Cc2cnn(CC)c21 (stereo unspecified) | -5.73
71 | CCn1ncc2c1C(COCC1CC1)CN(c1ccc(C)nn1)C2 (stereo unspecified) | -10.4
72 | O=S(=O)(C1CC1)N1CCC2(CCCN(Cc3ccccn3)C2)C1 (stereo unspecified) | -0.34
73 | Cc1ccc(CN2CCO[C@H]3[C@H](OCc4cccnc4)CC[C@@H]32)o1 | 36.8
74 | O=C(O)c1c(-c2cncnc2)ncc2c1CCN(Cc1ccco1)C2 | 24.2
75 | Cn1nc(CN2CCCC2)c2c1CN(CC1CC1)CC2 | 2.77
76 | CN1CCN(C[C@@H]2OC[C@H]3CN(CCc4ccccc4)CC[C@H]32)CC1 | -0.223
